Results published in ChEMBL document CHEMBL4507278 (2021).

Assays:
[1] = target: Tyrosine-protein kinase HCK (Homo sapiens) (UniProt P08631); settings: Compound concentration 1000.0 nM
[2] = target: Tyrosine-protein kinase BTK (Homo sapiens) (UniProt Q06187); settings: Compound concentration 1000.0 nM
[3] = target: Serine/threonine-protein kinase PLK2 (Homo sapiens) (UniProt Q9NYY3); settings: Compound concentration 1000.0 nM
[4] = target: Mu-type opioid receptor (Homo sapiens) (UniProt P35372); settings: Compound concentration 10.0 uM
[5] = target: Atypical kinase COQ8A, mitochondrial (Homo sapiens) (UniProt Q8NI60); settings: Compound concentration 1000.0 nM
[6] = target: Cyclin-dependent kinase 2 homolog (Plasmodium falciparum (isolate 3D7)) (UniProt P61075); settings: Compound concentration 1000.0 nM
[7] = target: Mitogen-activated protein kinase 4 (Homo sapiens) (UniProt P31152); settings: Compound concentration 1000.0 nM
[8] = target: Serine/threonine-protein kinase PAK 2 (Homo sapiens) (UniProt Q13177); settings: Compound concentration 1000.0 nM
[9] = target: Ankyrin repeat and protein kinase domain-containing protein 1 (Homo sapiens) (UniProt Q8NFD2); settings: Compound concentration 1000.0 nM
[10] = target: Serine/threonine-protein kinase 25 (Homo sapiens) (UniProt O00506); settings: Compound concentration 1000.0 nM
[11] = target: Serine/threonine-protein kinase Nek11 (Homo sapiens) (UniProt Q8NG66); settings: Compound concentration 1000.0 nM
[12] = target: Glycogen synthase kinase-3 alpha (Homo sapiens) (UniProt P49840); settings: Compound concentration 1000.0 nM
[13] = target: Cyclin-dependent kinase 4 (Homo sapiens) (UniProt P11802); settings: Compound concentration 1000.0 nM
[14] = target: Protein kinase C iota type (Homo sapiens) (UniProt P41743); settings: Compound concentration 1000.0 nM
[15] = target: Histamine H3 receptor (Homo sapiens) (UniProt Q9Y5N1); settings: Compound concentration 10.0 uM
[16] = target: MAP/microtubule affinity-regulating kinase 4 (Homo sapiens) (UniProt Q96L34); settings: Compound concentration 1000.0 nM
[17] = target: Sigma intracellular receptor 2 (Homo sapiens) (UniProt Q5BJF2); settings: Compound concentration 10.0 uM
[18] = target: Inhibitor of nuclear factor kappa-B kinase subunit beta (Homo sapiens) (UniProt O14920); settings: Compound concentration 1000.0 nM
[19] = target: ALK tyrosine kinase receptor (Homo sapiens) (UniProt Q9UM73); settings: Compound concentration 1000.0 nM
[20] = target: Ribosomal protein S6 kinase alpha-5 (Homo sapiens) (UniProt O75582); settings: Compound concentration 1000.0 nM
[21] = target: Proto-oncogene tyrosine-protein kinase Src (Homo sapiens) (UniProt P12931); settings: Compound concentration 1000.0 nM
[22] = tested on: Phosphatidylinositol 4,5-bisphosphate 3-kinase catalytic subunit alpha isoform (Homo sapiens), P42336 [H1047Y]; settings: Compound concentration 1000.0 nM
[23] = target: Cyclin-G-associated kinase (Homo sapiens) (UniProt O14976); settings: Compound concentration 1000.0 nM
[24] = target: Calcium/calmodulin-dependent protein kinase kinase 2 (Homo sapiens) (UniProt Q96RR4); settings: Compound concentration 1000.0 nM
[25] = target: Mitogen-activated protein kinase 11 (Homo sapiens) (UniProt Q15759); settings: Compound concentration 1000.0 nM
[26] = target: Discoidin domain-containing receptor 2 (Homo sapiens) (UniProt Q16832); settings: Compound concentration 1000.0 nM
[27] = target: Cyclin-dependent kinase 11B (Homo sapiens) (UniProt P21127); settings: Compound concentration 1000.0 nM
[28] = target: Ephrin type-A receptor 8 (Homo sapiens) (UniProt P29322); settings: Compound concentration 1000.0 nM
[29] = target: Ribosomal protein S6 kinase alpha-4 (Homo sapiens) (UniProt O75676); settings: Compound concentration 1000.0 nM
[30] = target: MAP kinase-interacting serine/threonine-protein kinase 2 (Homo sapiens) (UniProt Q9HBH9); settings: Compound concentration 1000.0 nM
[31] = target: Receptor tyrosine-protein kinase erbB-4 (Homo sapiens) (UniProt Q15303); settings: Compound concentration 1000.0 nM
[32] = target: GABA-A receptor; anion channel (Rattus norvegicus) (UniProt O09028+P15431+P18506+P18508+P19969+P20236+P23574+P23576+P28471+P28473+P30191+P62813+P63079+P63138+Q91ZM7+Q9ES14); settings: Compound concentration 10.0 uM
[33] = tested on: Phosphatidylinositol 4,5-bisphosphate 3-kinase catalytic subunit alpha isoform (Homo sapiens), P42336 [M1043I]; settings: Compound concentration 1000.0 nM
[34] = target: Calcium/calmodulin-dependent protein kinase type 1 (Homo sapiens) (UniProt Q14012); settings: Compound concentration 1000.0 nM
[35] = target: Tyrosine-protein kinase JAK1 (Homo sapiens) (UniProt P23458); settings: Compound concentration 1000.0 nM
[36] = target: Eukaryotic translation initiation factor 2-alpha kinase 1 (Homo sapiens) (UniProt Q9BQI3); settings: Compound concentration 1000.0 nM
[37] = target: Tyrosine-protein kinase SYK (Homo sapiens) (UniProt P43405); settings: Compound concentration 1000.0 nM
[38] = target: Interferon-induced, double-stranded RNA-activated protein kinase (Homo sapiens) (UniProt P19525); settings: Compound concentration 1000.0 nM
[39] = target: Dual specificity mitogen-activated protein kinase kinase 6 (Homo sapiens) (UniProt P52564); settings: Compound concentration 1000.0 nM
[40] = target: cAMP-dependent protein kinase catalytic subunit alpha (Homo sapiens) (UniProt P17612); settings: Compound concentration 1000.0 nM
[41] = target: Mitogen-activated protein kinase kinase kinase 19 (Homo sapiens) (UniProt Q56UN5); settings: Compound concentration 1000.0 nM
[42] = target: Cyclin-dependent kinase 4 (Homo sapiens) (UniProt P11802); settings: Compound concentration 1000.0 nM; remark: listed apart in the source
[43] = target: Myosin light chain kinase, smooth muscle (Homo sapiens) (UniProt Q15746); settings: Compound concentration 1000.0 nM

Sequence of Cyclin-dependent kinase 4 (Homo sapiens) (P11802 whole entry): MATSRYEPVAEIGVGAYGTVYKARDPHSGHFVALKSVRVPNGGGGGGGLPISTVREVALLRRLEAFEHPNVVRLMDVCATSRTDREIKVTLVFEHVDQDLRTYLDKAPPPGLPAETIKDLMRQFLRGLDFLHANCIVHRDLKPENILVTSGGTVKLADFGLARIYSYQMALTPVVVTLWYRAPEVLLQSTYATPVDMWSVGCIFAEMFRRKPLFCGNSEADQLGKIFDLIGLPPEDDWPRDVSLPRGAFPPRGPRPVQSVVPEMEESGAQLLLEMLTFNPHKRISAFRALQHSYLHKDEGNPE
Sequence of Atypical kinase COQ8A, mitochondrial (Homo sapiens) (Q8NI60 163-647 limits assumed): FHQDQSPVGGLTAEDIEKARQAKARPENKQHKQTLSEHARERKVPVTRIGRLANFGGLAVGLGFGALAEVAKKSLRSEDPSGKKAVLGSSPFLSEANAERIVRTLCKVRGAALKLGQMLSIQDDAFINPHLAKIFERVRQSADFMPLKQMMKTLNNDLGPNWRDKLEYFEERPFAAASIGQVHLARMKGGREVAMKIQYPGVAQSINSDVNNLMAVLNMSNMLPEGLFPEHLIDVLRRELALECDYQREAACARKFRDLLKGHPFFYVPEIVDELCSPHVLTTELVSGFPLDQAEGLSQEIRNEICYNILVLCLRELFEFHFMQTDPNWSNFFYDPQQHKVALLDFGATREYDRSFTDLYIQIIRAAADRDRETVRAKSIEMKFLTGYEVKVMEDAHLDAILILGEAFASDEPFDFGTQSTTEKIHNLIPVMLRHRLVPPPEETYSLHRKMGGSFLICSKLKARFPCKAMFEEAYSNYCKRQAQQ
Sequence of Tyrosine-protein kinase JAK1 (Homo sapiens) (P23458 whole entry): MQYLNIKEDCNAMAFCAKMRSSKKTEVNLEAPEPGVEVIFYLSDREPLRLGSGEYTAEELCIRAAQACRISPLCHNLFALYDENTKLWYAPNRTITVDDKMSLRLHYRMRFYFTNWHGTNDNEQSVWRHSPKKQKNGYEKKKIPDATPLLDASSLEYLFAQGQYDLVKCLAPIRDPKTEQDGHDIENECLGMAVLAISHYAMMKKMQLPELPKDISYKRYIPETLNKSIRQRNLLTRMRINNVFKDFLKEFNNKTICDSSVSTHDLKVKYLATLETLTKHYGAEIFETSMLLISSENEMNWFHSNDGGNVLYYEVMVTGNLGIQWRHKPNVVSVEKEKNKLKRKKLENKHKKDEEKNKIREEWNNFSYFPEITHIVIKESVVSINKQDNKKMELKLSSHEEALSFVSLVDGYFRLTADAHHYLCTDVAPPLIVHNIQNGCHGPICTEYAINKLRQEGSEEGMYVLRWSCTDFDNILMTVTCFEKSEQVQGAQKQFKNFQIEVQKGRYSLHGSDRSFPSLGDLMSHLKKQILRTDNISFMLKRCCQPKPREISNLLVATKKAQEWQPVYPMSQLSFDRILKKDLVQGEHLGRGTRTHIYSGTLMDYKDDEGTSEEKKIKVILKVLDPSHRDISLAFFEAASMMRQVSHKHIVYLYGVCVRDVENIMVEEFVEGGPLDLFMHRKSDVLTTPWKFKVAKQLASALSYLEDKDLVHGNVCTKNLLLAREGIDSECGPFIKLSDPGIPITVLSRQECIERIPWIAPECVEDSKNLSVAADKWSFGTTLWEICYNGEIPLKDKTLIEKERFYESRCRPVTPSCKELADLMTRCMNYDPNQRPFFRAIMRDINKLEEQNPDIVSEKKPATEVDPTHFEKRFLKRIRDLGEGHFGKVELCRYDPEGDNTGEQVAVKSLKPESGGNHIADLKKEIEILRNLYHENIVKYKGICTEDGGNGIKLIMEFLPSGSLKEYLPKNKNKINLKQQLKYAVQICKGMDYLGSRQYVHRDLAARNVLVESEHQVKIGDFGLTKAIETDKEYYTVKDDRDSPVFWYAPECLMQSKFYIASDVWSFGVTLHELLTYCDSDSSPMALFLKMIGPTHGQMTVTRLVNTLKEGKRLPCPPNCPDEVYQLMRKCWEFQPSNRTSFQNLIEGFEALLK
Sequence of Mitogen-activated protein kinase 4 (Homo sapiens) (P31152 whole entry): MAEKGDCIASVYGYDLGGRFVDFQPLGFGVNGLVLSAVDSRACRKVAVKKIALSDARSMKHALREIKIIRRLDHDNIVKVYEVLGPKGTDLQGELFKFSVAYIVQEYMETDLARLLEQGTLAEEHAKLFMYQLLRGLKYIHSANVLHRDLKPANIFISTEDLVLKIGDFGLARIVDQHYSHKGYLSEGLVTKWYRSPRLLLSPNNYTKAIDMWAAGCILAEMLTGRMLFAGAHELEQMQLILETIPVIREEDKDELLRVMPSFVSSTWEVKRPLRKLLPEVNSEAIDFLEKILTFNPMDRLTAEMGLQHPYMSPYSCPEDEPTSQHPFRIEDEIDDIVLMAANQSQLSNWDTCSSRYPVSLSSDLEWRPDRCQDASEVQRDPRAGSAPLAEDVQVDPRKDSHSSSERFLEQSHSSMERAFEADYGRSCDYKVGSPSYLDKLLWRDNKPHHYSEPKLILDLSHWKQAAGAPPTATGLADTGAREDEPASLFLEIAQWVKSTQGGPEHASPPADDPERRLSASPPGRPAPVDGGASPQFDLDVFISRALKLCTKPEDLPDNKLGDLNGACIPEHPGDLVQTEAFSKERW
Sequence of Calcium/calmodulin-dependent protein kinase type 1 (Homo sapiens) (Q14012 whole entry, looked up): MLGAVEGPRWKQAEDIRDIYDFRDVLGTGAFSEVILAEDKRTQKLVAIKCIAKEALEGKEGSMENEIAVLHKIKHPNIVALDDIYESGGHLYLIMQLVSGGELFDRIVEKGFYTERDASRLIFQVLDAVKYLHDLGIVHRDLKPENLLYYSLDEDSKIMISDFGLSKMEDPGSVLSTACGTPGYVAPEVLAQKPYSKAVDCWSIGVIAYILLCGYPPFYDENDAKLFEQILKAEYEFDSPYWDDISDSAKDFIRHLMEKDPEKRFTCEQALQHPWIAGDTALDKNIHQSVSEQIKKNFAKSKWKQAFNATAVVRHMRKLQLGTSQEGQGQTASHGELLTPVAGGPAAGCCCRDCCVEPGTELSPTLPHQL
Sequence of Mitogen-activated protein kinase 11 (Homo sapiens) (Q15759 whole entry, the tested form may be a part): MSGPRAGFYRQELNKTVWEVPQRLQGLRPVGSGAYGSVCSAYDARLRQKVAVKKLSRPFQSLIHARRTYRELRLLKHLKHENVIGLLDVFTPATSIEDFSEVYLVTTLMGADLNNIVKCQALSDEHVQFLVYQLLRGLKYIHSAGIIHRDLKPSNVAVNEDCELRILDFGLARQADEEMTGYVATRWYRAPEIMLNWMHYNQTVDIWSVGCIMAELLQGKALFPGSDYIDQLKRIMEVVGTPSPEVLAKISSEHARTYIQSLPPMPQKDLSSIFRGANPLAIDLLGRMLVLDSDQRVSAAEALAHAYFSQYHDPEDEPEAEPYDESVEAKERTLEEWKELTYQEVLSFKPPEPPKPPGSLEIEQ
Sequence of Sigma intracellular receptor 2 (Homo sapiens) (Q5BJF2 whole entry): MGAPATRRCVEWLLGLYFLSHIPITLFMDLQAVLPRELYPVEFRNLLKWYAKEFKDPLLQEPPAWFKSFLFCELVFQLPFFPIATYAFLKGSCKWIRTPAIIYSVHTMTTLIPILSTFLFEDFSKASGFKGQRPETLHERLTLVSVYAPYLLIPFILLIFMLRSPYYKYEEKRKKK
Sequence of Serine/threonine-protein kinase PLK2 (Homo sapiens) (Q9NYY3 whole entry, looked up): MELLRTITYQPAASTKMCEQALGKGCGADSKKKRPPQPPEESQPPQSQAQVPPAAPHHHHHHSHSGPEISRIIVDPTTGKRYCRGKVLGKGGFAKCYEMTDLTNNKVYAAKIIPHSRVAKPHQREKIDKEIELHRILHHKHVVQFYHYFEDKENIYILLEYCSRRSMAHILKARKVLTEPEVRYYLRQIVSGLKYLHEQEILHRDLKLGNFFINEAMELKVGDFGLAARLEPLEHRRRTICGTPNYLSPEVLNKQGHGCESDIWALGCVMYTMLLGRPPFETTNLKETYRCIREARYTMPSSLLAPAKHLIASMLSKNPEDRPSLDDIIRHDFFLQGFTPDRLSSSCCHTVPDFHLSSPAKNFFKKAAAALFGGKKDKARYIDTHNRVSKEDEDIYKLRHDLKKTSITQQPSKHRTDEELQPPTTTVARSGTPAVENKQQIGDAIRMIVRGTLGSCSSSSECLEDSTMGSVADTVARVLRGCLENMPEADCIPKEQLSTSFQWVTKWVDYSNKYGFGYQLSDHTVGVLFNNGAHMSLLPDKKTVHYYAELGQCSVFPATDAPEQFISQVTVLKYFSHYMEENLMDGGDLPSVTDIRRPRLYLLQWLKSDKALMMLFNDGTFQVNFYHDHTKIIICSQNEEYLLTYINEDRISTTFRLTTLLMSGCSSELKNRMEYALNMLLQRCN
Sequence of Ribosomal protein S6 kinase alpha-5 (Homo sapiens) (O75582 whole entry, looked up): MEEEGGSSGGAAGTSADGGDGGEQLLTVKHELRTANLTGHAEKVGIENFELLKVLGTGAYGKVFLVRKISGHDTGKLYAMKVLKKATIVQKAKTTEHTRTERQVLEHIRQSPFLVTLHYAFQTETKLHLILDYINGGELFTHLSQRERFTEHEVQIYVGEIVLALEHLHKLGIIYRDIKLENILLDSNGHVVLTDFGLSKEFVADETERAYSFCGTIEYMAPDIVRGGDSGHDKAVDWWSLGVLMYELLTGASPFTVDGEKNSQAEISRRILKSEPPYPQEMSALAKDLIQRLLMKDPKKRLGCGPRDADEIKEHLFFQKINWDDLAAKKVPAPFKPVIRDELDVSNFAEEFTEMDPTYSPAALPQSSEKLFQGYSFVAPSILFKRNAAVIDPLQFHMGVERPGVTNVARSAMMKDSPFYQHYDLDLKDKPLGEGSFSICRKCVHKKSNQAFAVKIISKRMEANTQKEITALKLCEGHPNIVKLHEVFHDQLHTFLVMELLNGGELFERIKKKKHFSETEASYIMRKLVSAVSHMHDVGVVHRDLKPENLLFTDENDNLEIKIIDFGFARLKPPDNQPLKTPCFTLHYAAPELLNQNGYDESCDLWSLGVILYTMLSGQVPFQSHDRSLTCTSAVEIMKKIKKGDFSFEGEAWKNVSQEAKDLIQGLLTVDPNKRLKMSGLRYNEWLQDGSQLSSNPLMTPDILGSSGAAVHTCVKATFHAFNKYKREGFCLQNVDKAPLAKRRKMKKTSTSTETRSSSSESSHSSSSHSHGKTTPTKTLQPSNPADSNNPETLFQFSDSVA

CS(=O)(=O)NCC[C@H](NC(=O)c1cncc2c1cnn2-c1ccc(F)cc1)c1ccnc(S(C)(=O)=O)c1 [BI 9307]
inactive: residual activity [1] 100% | residual activity [2] 100% | residual activity [3] 100% | inhibition [4] -0.92% | residual activity [5] 95% | residual activity [6] 100% | residual activity [7] 100% | residual activity [8] 71% | residual activity [9] 100% | residual activity [10] 78% | residual activity [11] 100% | residual activity [12] 100% | residual activity [13] 100% | residual activity [14] 100% | inhibition [15] 18.9% | residual activity [16] 78% | inhibition [17] -1.85% | residual activity [18] 89% | residual activity [19] 100% | residual activity [20] 100% | residual activity [21] 96% | residual activity [22] 100% | residual activity [23] 100% | residual activity [24] 100% | residual activity [25] 100% | residual activity [26] 100% | residual activity [27] 100% | residual activity [28] 100% | residual activity [29] 85% | residual activity [30] 100% | residual activity [31] 95% | inhibition [32] 23.5% | residual activity [33] 95% | residual activity [34] 94% | residual activity [35] 100% | residual activity [36] 100% | residual activity [37] 100% | residual activity [38] 53% | residual activity [39] 82% | residual activity [40] 100% | residual activity [41] 98% | residual activity [42] 95% | residual activity [43] 100%

CS(=O)(=O)c1cc(C2(NC(=O)c3cncc4c3cnn4-c3ccc(F)cc3)CC2)ccn1 [BI 639667]
inactive: residual activity [1] 100% | residual activity [2] 97% | residual activity [3] 70% | inhibition [4] -7.9% | residual activity [5] 100% | residual activity [6] 100% | residual activity [7] 79% | residual activity [8] 100% | residual activity [9] 96% | residual activity [10] 100% | residual activity [11] 100% | residual activity [12] 70% | residual activity [13] 83% | residual activity [14] 100% | inhibition [15] 29.6% | residual activity [16] 100% | inhibition [17] 9.02% | residual activity [18] 100% | residual activity [19] 100% | residual activity [20] 61% | residual activity [21] 100% | residual activity [22] 100% | residual activity [23] 85% | residual activity [24] 75% | residual activity [25] 100% | residual activity [26] 100% | residual activity [27] 81% | residual activity [28] 99% | residual activity [29] 85% | residual activity [30] 100% | residual activity [31] 100% | inhibition [32] 6.63% | residual activity [33] 93% | residual activity [34] 65% | residual activity [35] 83% | residual activity [36] 73% | residual activity [37] 100% | residual activity [38] 60% | residual activity [39] 74% | residual activity [40] 100% | residual activity [41] 91% | residual activity [42] 100% | residual activity [43] 94%
